ChEMBL document CHEMBL3580632, “Lumiquinone A, an α-Aminomalonate-Derived Aminobenzoquinone from Photorhabdus luminescens” (2015)
Active and inactive are the calls of the source. No cut-off for these calls is given here.

Assays:
Bacillus subtilis = assay: Antimicrobial activity against Bacillus subtilis NCIB3610 assessed as inhibition of microbial growth at 50 ug/disk incubated at 30 degC for 24 hrs by paper disk method; format: functional; details: NCIB3610, 24 h, read-out: IZ
Escherichia coli = assay: Antimicrobial activity against Escherichia coli Nissle1917 assessed as inhibition of microbial growth incubated at 30 degC for 24 hrs by paper disk method; format: functional, organism-based
Saccharomyces cerevisiae = assay: Antimicrobial activity against Saccharomyces cerevisiae assessed as inhibition of microbial growth at 50 ug/disk incubated at 30 degC for 24 hrs by paper disk method; format: functional

| Compound | zone of inhibition at 50 µg/disc (Bacillus subtilis) | growth inhibition (GI) (Escherichia coli) | growth inhibition (GI) (Saccharomyces cerevisiae) |
| --- | --- | --- | --- |
| CC(C)C1=C(O)C(=O)C(/C=C/c2ccccc2)=C(N)C1=O | 4 mm | inactive |  |
| CC(C)c1c(O)cc(/C=C/c2ccccc2)cc1O |  | inactive | Active |
